Measurements published in ChEMBL document CHEMBL3352636, “Rational design, synthesis and anti-proliferative evaluation of novel benzosuberone tethered with hydrazide-hydrazones” (2014).

Legend:
Format in all cases: functional
HeLa = experiment: Growth inhibition of human HeLa cells after 48 hrs by SRB assay
[1] = Growth inhibition of human IMR32 cells after 48 hrs by SRB assay; conditions: IMR-32, 48 h
MDA-MB-231 = experiment: Growth inhibition of human MDA-MB-231 cells after 48 hrs by SRB assay; conditions: MDA-MB-231, 48 h
[2] = Growth inhibition of human MiaPaCa cells after 48 hrs by SRB assay; conditions: MIA PaCa-2, 48 h

GI50 (HeLa)	GI50 (MDA-MB-231)	Compound	GI50 [1]	GI50 [2]
1000 nM	710 nM	Cc1cc2c(cc1C)C(Cl)=C(/C=N/NC(=O)c1cccc3ccccc13)CCC2	3900 nM	4600 nM
2300 nM	260 nM	Cc1ccc(/C=N\NC(=O)C2=C(Cl)c3ccccc3CCC2)cc1	140 nM	< 10 nM
15600 nM	300 nM	COc1cccc(/C=N\NC(=O)C2=C(Cl)c3ccccc3CCC2)c1	< 10 nM	< 10 nM
38500 nM	290 nM	COc1ccc(/C=N\NC(=O)C2=C(Cl)c3ccccc3CCC2)c(OC)c1	14900 nM	2700 nM
8200 nM	< 10 nM	COc1cc(/C=N\NC(=O)C2=C(Cl)c3ccccc3CCC2)cc(OC)c1OC	< 10 nM	1400 nM
2300 nM	260 nM	O=C(N/N=C\c1ccc(Cl)cc1)C1=C(Cl)c2ccccc2CCC1	140 nM	< 10 nM
1300 nM	410 nM	O=C(N/N=C\c1ccc(F)cc1)C1=C(Cl)c2ccccc2CCC1	270 nM	< 10 nM
1000 nM	3000 nM	O=C(N/N=C\C1=C(Cl)c2ccccc2CCC1)C1=C(Cl)c2ccccc2CCC1	2200 nM	1600 nM
4500 nM	3100 nM	Cc1cc2c(cc1C)C(Cl)=C(/C=N\NC(=O)C1=C(Cl)c3ccccc3CCC1)CCC2	670 nM	210 nM
21000 nM	1200 nM	COc1cc(/C=N\NC(=O)C2=C(Cl)c3cc(C)c(C)cc3CCC2)cc(OC)c1OC	4100 nM	5800 nM
1600 nM	410 nM	Cc1cc2c(cc1C)C(Cl)=C(C(=O)N/N=C\c1ccc(Cl)cc1)CCC2	18300 nM	440 nM
2200 nM	840 nM	Cc1cc2c(cc1C)C(Cl)=C(C(=O)N/N=C\c1ccc(F)cc1)CCC2	3500 nM	360 nM
> 100000 nM	7700 nM	Cc1cc2c(cc1C)C(Cl)=C(C(=O)N/N=C\C1=C(Cl)c3ccccc3CCC1)CCC2	2400 nM	6000 nM
> 100000 nM	78200 nM	Cc1cc2c(cc1C)C(Cl)=C(/C=N\NC(=O)C1=C(Cl)c3cc(C)c(C)cc3CCC1)CCC2	59900 nM	6000 nM
> 100000 nM	11100 nM	O=C(N/N=C/C1=C(Cl)c2ccccc2CCC1)c1ccccc1	16100 nM	1000 nM
300 nM	710 nM	Cc1ccc(C(=O)N/N=C/C2=C(Cl)c3ccccc3CCC2)cc1	300 nM	10000 nM
9200 nM	290 nM	COc1cccc(C(=O)N/N=C/C2=C(Cl)c3ccccc3CCC2)c1C	26500 nM	700 nM
770 nM	30000 nM	COc1cc(C(=O)N/N=C/C2=C(Cl)c3ccccc3CCC2)cc(OC)c1OC	75600 nM	69300 nM
19200 nM	16300 nM	O=C(N/N=C/C1=C(Cl)c2ccccc2CCC1)c1cccc(Cl)c1	27300 nM	78400 nM

GI50 (HeLa)	GI50 (MDA-MB-231)	Compound	GI50 [1]	GI50 [2]
> 100000 nM	5000 nM	Nc1ccccc1C(=O)N/N=C/C1=C(Cl)c2ccccc2CCC1	51000 nM	65100 nM
> 100000 nM	3800 nM	O=C(N/N=C/C1=C(Cl)c2ccccc2CCC1)c1ccc([N+](=O)[O-])cc1	26000 nM	2300 nM
1100 nM	> 100000 nM	COc1cc(C(=O)N/N=C/C2=C(Cl)c3ccccc3CCC2)c([N+](=O)[O-])cc1OC	2700 nM	10900 nM
7500 nM	91700 nM	O=C(N/N=C/C1=C(Cl)c2ccccc2CCC1)c1cccnc1	150 nM	11700 nM
6300 nM	55200 nM	O=C(N/N=C/C1=C(Cl)c2ccccc2CCC1)c1cccc(I)c1	7600 nM	1600 nM
16300 nM	94300 nM	O=C(N/N=C/C1=C(Cl)c2ccccc2CCC1)c1cccc(C(F)(F)F)c1	2000 nM	5800 nM
4700 nM	12100 nM	O=C(N/N=C/C1=C(Cl)c2ccccc2CCC1)c1cccc2ccccc12	9200 nM	13600 nM
> 100000 nM	2500 nM	Cc1cc2c(cc1C)C(Cl)=C(/C=N/NC(=O)c1ccccc1)CCC2	1800 nM	> 100000 nM
> 100000 nM	32900 nM	Cc1ccc(C(=O)N/N=C/C2=C(Cl)c3cc(C)c(C)cc3CCC2)cc1	100 nM	28800 nM
300 nM	10000 nM	COc1cccc(C(=O)N/N=C/C2=C(Cl)c3cc(C)c(C)cc3CCC2)c1C	170 nM	2000 nM
760 nM	460 nM	COc1cc(C(=O)N/N=C/C2=C(Cl)c3cc(C)c(C)cc3CCC2)cc(OC)c1OC	20900 nM	2300 nM
770 nM	1930 nM	Cc1cc2c(cc1C)C(Cl)=C(/C=N/NC(=O)c1cccc(Cl)c1)CCC2	> 100000 nM	33600 nM
> 100000 nM	3700 nM	Cc1cc2c(cc1C)C(Cl)=C(/C=N/NC(=O)c1ccccc1N)CCC2	36300 nM	810 nM
2000 nM	220 nM	COc1cc(C(=O)N/N=C/C2=C(Cl)c3cc(C)c(C)cc3CCC2)c([N+](=O)[O-])cc1OC	13800 nM	1600 nM
650 nM	5400 nM	Cc1cc2c(cc1C)C(Cl)=C(/C=N/NC(=O)c1cccnc1)CCC2	8400 nM	1600 nM
> 100000 nM	1200 nM	Cc1cc2c(cc1C)C(Cl)=C(/C=N/NC(=O)c1cccc(I)c1)CCC2	1900 nM	4300 nM
6800 nM	< 10 nM	Cc1cc2c(cc1C)C(Cl)=C(/C=N/NC(=O)c1cccc(C(F)(F)F)c1)CCC2	7800 nM	12200 nM
73 nM	85 nM	COc1cccc2c1C(=O)c1c(O)c3c(c(O)c1C2=O)C[C@@](O)(C(=O)CO)C[C@@H]3O[C@H]1C[C@H](N)[C@H](O)[C@H](C)O1 [DOXORUBICIN]	23 nM	97 nM
25 nM	91 nM	CC(=O)O[C@H]1C(=O)[C@@]2(C)[C@H]([C@H](OC(=O)c3ccccc3)[C@]3(O)C[C@H](OC(=O)[C@H](O)[C@@H](NC(=O)c4ccccc4)c4ccccc4)C(C)=C1C3(C)C)[C@]1(OC(C)=O)CO[C@@H]1C[C@@H]2O [PACLITAXEL]	75 nM	56 nM
